Measurements reported in paper PMC10473604 (bioRxiv, 2023).

Tested on: HLA-A2
Assay: HLA-I binding assay with biotin-tagged HLA-A2 monomers
Design: species or system human
Conditions: in-silico predicted HLA-A2 binders not listed in Fig. 1G

Sequence | HLA-A2 binding in vitro, in words
GIIYIIYKL [CVB1–2-3–4-5–6_1502–1510] | did not confirm as binders
KLPDALSQM [CVB1_150–158] | did not confirm as binders
VIASYPWPI [CVB1–2-3–5-6_2051–2059] | did not confirm as binders
VMGDALGSV [ZnT8_245–253] | binding
